# Data from patent US20160129011A1, “BICYCLO 2,3-BENZODIAZEPINES AND SPIROCYCLICALLY SUBSTITUTED 2,3-BENZODIAZEPINES” (BAYER PHARMA AKTIENGESELLSCHAFT, priority 2013, published 2016).
# Key:
# BRD4 (BD1) = molecular target: T1, BRD4 (BD1) (Homo sapiens, UniProt O60885); experiment: Binding assay BRD4/acetylated peptide H4 (TR-FRET protein-protein interaction assay); settings: BRD4 (BD1) / acetylated histone H4 peptide
# T1 construct: longer constructs also being possible, preferably amino acids 44-168; made in house; host or cells: E. coli
# Description: To assess the BRD4 binding strength of the substances described in this application, the ability thereof to inhibit the interaction between BRD4 (BD1) and acetylated histone H4 in a dose-dependent manner was quantified.
# For this purpose, a time-resolved fluorescence resonance energy transfer (TR-FRET) assay was used, which measures the binding between N-terminally His6-tagged BRD4 (BD1) (amino acids 67-152, longer constructs also being possible, preferably amino acids 44-168) and a synthetic acetylated histone H4 (Ac—H4) peptide with sequence GRGK(Ac)GGK(Ac)GLGK(Ac)GGAK(Ac)RHGSGSK-biotin. The recombinant BRD4 protein produced in-house according to Filippakopoulos et al., Nature, 2010, 468:1119-1123 was expressed in E. coli and purified by means of (Ni-NTA) affinity and (Sephadex G-75) size exclusion chromatography. The Ac—H4 peptide can be purchased, for example, from Biosyntan (Berlin, Germany).
# In the assay, typically 11 different concentrations of each substance (0.1 nM, 0.33 nM, 1.1 nM, 3.8 nM, 13 nM, 44 nM, 0.15 μM, 0.51 μM, 1.7 μM, 5.9 μM and 20 μM) were analysed as duplicates on the same microtitre plate. For this purpose, 100-fold concentrated solutions in DMSO were prepared by serial dilutions (1:3.4) of a 2 mM stock solution into a clear, 384-well microtitre plate (Greiner Bio-One, Frickenhausen, Germany). From this, 50 nl were transferred into a black test plate (Greiner Bio-One, Frickenhausen, Germany). The test was started by the addition of 2 μl of a 2.5-fold concentrated BRD4 solution (final concentration typically 10 nM in the 5 μl of reaction volume) in aqueous assay buffer [50 mM HEPES pH 7.5, 50 mM sodium chloride (NaCl), 0.25 mM CHAPS and 0.05% serum albumin (BSA)] to the substances in the test plate. This was followed by a 10-minute incubation step at 22° C. for the pre-equilibration of putative complexes between BRD4 and the substances.
# The mixture was then incubated in the dark at 22° C. for one hour and then at 4° C. for at least 3 hours and for no longer than overnight. The formation of BRD4/Ac—H4 complexes was determined by the measurement of the resonance energy transfer from the streptavidin-Eu cryptate to the anti-6His-XL665 antibody present in the reaction. For this purpose, the fluorescence emission was measured at 620 nm and 665 nm after excitation at 330-350 nm in a TR-FRET measuring instrument, for example a Rubystar or Pherastar (both from BMG Lab Technologies, Offenburg, Germany) or a Viewlux (Perkin-Elmer). The ratio of the emissions at 665 nm and at […] was taken as an indicator of the amount of BRD4/Ac—H4 complexes formed.
# The data (ratios) obtained were normalized, with 0% inhibition corresponding to the mean from the measurements for a set of controls (typically 32 data points) in which all the reagents were present. In these, in place of test substances, 50 nl of DMSO (100%) were used. Inhibition of 100% corresponded to the mean from the measurements for a set of controls (typically 32 data points) in which all the reagents except BRD4 were present. The IC50 was determined by regression analysis based on a 4-parameter equation (minimum, maximum, IC50, Hill; Y=max+(min−max)/(1+(X/IC50)^Hill)).
# MOLM-13 cells = experiment: Cell proliferation assay (alamarBlue), MOLM-13; format: cell-based; settings: Homo sapiens, MOLM-13; acute myeloid leukaemia cell line, 96 h incubation
# Description: (§1) In accordance with the invention, the ability of the substances to inhibit cell proliferation was determined. Cell viability was determined by means of the alamarBlue® reagent (Invitrogen) in a Victor X3 Multilabel Reader (Perkin Elmer). The excitation wavelength was 530 nm and the emission wavelength […].
# The MOLM-13 cells (DSMZ, ACC 554) were sown at a concentration of 4000 cells/well in 100 μl of growth medium (RPMI1640, 10% FCS) on 96-well microtitre plates.
# (§2) The MDA-MB-231 cells (DSMZ, ACC 732) were sown at a concentration of 4000 cells/well in 100 μl of growth medium (DMEM/Ham's F12 medium, 10% FCS) on 96-well microtitre plates. After overnight incubation at 37° C., the fluorescence values (CI values) were determined. Then the plates were treated with various substance dilutions (1E-5 M, 3E-6 M, 1E-6 M, 3E-7 M, 1E-7 M, 3E-8 M, 1E-8 M) and incubated at 37° C. for 72 (MV4-11, LOX-IMVI cells), 96 (MOLM-13, B16F10, […] cells), 120 (MOLP-8, KMS-12-PE cells) or 168 (LAPC-4 cells) hours. Subsequently, the fluorescence values were determined (CO values). For the data analysis, the CI values were subtracted from the CO values and the results were compared between cells which had been treated with various dilutions of the substance or only with buffer solution. This was used to calculate the IC50 values (substance concentration required for 50% inhibition of cell proliferation).
# (§3) The substances were examined in the cell lines of Table 1 which, in an exemplary manner, represent the stated indications: […]
# MOLP-8 cells = experiment: Cell proliferation assay (alamarBlue), MOLP-8; format: cell-based; settings: Homo sapiens, MOLP-8; multiple myeloma cell line, 120 h incubation
# Description: as §1
# The MOLP-8 cells (DSMZ, ACC 569) were sown at a concentration of 4000 cells/well in 100 μl of growth medium (RPMI1640, 20% FCS) on 96-well microtitre plates.
# as §2, §3
IC50 (BRD4 (BD1)),IC50 (MOLM-13 cells),Structure (SMILES),IC50 (MOLP-8 cells)
20 nM,210 nM,"CNC(=O)N1N=C(c2ccc(N3CC4(COC4)C3)cc2)c2cc(OC)c(OC)cc2CC1C (racemic) [Example 5, (±)-7,8-dimethoxy-N,4-dimethyl-1-[4-(2-oxa-6-azaspiro[3.3]hept-6-yl)phenyl]-4,5-dihydro-3H-2,3-benzodiazepine-3-carboxamide]",–
20 nM,150 nM,"CNC(=O)N1N=C(c2ccc(N3CC4(CCS4(=O)=O)C3)cc2)c2cc(OC)c(OC)cc2CC1C (racemic) [Example 3, 1-[4-(1,1-dioxido-1-thia-6-azaspiro[3.3]hept-6-yl)phenyl]-7,8-dimethoxy-N,4-dimethyl-4,5-dihydro-3H-2,3-benzodiazepine-3-carboxamide]",–
70 nM,390 nM,"CNC(=O)N1N=C(c2ccc(-c3ccnc4ccccc34)cc2)c2cc(OC)c(OC)cc2CC1C (racemic) [Example 24, (±)-1-[4-(quinolin-4-yl)phenyl]-7,8-dimethoxy-N,4-dimethyl-4,5-dihydro-3H-2,3-benzodiazepine-3-carboxamide]",–
90 nM,560 nM,"CNC(=O)N1N=C(c2cccc(N3CC4CCC(C3)O4)c2)c2cc(OC)c(OC)cc2CC1C (racemic) [Example 13, (±)-7,8-dimethoxy-N,4-dimethyl-1-[3-(8-oxa-3-azabicyclo[3.2.1]oct-3-yl)phenyl]-4,5-dihydro-3H-2,3-benzodiazepine-3-carboxamide]",–
1850 nM,6090 nM,"CNC(=O)N1N=C(c2ccc(N3C[C@H]4CC[C@@H](C3)O4)cc2)c2cc(OC)c(OC)cc2C[C@H]1C [Example 4.1, (4R)-7,8-dimethoxy-N,4-dimethyl-1-[4-(8-oxa-3-azabicyclo[3.2.1]oct-3-yl)phenyl]-4,5-dihydro-3H-2,3-benzodiazepine-3-carboxamide]",–
60 nM,550 nM,"CNC(=O)N1N=C(c2ccc(-c3cncc4ccccc34)cc2)c2cc(OC)c(OC)cc2CC1C (racemic) [Example 26, (±)-1-[4-(isoquinolin-4-yl)phenyl]-7,8-dimethoxy-N,4-dimethyl-4,5-dihydro-3H-2,3-benzodiazepine-3-carboxamide]",–
90 nM,710 nM,"CNC(=O)N1N=C(c2ccc(-c3ccc4c(c3)OCCO4)cc2)c2cc(OC)c(OC)cc2CC1C (racemic) [Example 21, (±)-1-[4-(2,3-dihydro-1,4-benzodioxin-6-yl)phenyl]-7,8-dimethoxy-N,4-dimethyl-4,5-dihydro-3H-2,3-benzodiazepine-3-carboxamide]",–
60 nM,250 nM,"CNC(=O)N1N=C(c2ccc(-c3cccc4ncccc34)cc2)c2cc(OC)c(OC)cc2CC1C (racemic) [Example 23, (±)-1-[4-(quinolin-5-yl)phenyl]-7,8-dimethoxy-N,4-dimethyl-4,5-dihydro-3H-2,3-benzodiazepine-3-carboxamide]",–
30 nM,140 nM,"CNC(=O)N1N=C(c2ccc(N3C(=O)C4CCC3C4)cc2)c2cc(OC)c(OC)cc2CC1C (stereo not drawn) [Example 1, [1S-(1R*,4S*)]-7,8-Dimethoxy-N,4-dimethyl-1-[4-(3-oxo-2-azabicyclo[2.2.1]hept-2-yl)phenyl]-4,5-dihydro-3H-2,3-benzodiazepine-3-carboxamide]",–
30 nM,100 nM,"CNC(=O)N1N=C(c2ccc(N3C[C@H]4CC[C@@H](C3)O4)cc2)c2cc(OC)c(OC)cc2CC1C (mixture of isomers) [Example 4, (±)-7,8-dimethoxy-N,4-dimethyl-1-[4-(8-oxa-3-azabicyclo[3.2.1]oct-3-yl)phenyl]-4,5-dihydro-3H-2,3-benzodiazepine-3-carboxamide]",–
50 nM,530 nM,"CNC(=O)N1N=C(c2ccc(-c3ccc4c(ccn4C)c3)cc2)c2cc(OC)c(OC)cc2CC1C (racemic) [Example 25, (±)-7,8-dimethoxy-N,4-dimethyl-1-[4-(1-methyl-1H-indol-5-yl)phenyl]-4,5-dihydro-3H-2,3-benzodiazepine-3-carboxamide]",–
70 nM,200 nM,"CNC(=O)N1N=C(c2ccc(N3CCN4CCCC4C3)cc2)c2cc(OC)c(OC)cc2CC1C (racemic) [Example 30, (±)-1-[4-(hexahydropyrrolo[1,2-a]pyrazin-2(1H)-yl)phenyl]-7,8-dimethoxy-N,4-dimethyl-4,5-dihydro-3H-2,3-benzodiazepine-3-carboxamide]",90 nM
50 nM,550 nM,"CNC(=O)N1N=C(c2ccc(-c3ccc4c(c3)CCO4)cc2)c2cc(OC)c(OC)cc2CC1C (racemic) [Example 22, (±)-1-[4-(2,3-dihydro-1-benzofuran-5-yl)phenyl]-7,8-dimethoxy-N,4-dimethyl-4,5-dihydro-3H-2,3-benzodiazepine-3-carboxamide]",–
20 nM,110 nM,"CNC(=O)N1N=C(c2ccc(N3CC4(COC4)C3)cc2)c2cc(OC)c(OC)cc2C[C@@H]1C [Example 5.1, (4S)-7,8-dimethoxy-N,4-dimethyl-1-[4-(2-oxa-6-azaspiro[3.3]hept-6-yl)phenyl]-4,5-dihydro-3H-2,3-benzodiazepine-3-carboxamide]",–
90 nM,220 nM,"CNC(=O)N1N=C(c2ccc(N3C[C@H]4CN(C)C[C@H]4C3)cc2)c2cc(OC)c(OC)cc2CC1C (mixture of isomers) [Example 33, (±)-7,8-dimethoxy-N,4-dimethyl-1-{4-[(3aR,6aS)-5-methylhexahydropyrrolo[3,4-c]pyrrol-2(1H)-yl]phenyl}-4,5-dihydro-3H-2,3-benzodiazepine-3-carboxamide]",110 nM

Structure (SMILES),IC50 (BRD4 (BD1)),IC50 (MOLM-13 cells),IC50 (MOLP-8 cells)
"CNC(=O)N1N=C(c2ccc(N3[C@@H]4CC[C@H]3CC(=O)C4)cc2)c2cc(OC)c(OC)cc2CC1C (mixture of isomers) [Example 6, (±)-7,8-dimethoxy-N,4-dimethyl-1-[4-(3-oxo-8-azabicyclo[3.2.1]oct-8-yl)phenyl]-4,5-dihydro-3H-2,3-benzodiazepine-3-carboxamide]",30 nM,180 nM,–
"CNC(=O)N1N=C(c2ccc(N3[C@@H]4CC[C@H]3CC(=O)C4)cc2)c2cc(OC)c(OC)cc2C[C@@H]1C [Example 6.2, (4S)-7,8-dimethoxy-N,4-dimethyl-1-[4-(3-oxo-8-azabicyclo[3.2.1]oct-8-yl)phenyl]-4,5-dihydro-3H-2,3-benzodiazepine-3-carboxamide]",20 nM,50 nM,–
